Test results as given in patent US5597832A (Abbott Laboratories, priority 1994, dated 1997).
“Also recorded” adds a separate entry of the source. Counter-ions that a name gives are not always drawn. Like-named read-outs stand apart in the source and are kept apart here.

Legend:
[1] = test system: D-1 receptor; test: Adenylate cyclase assay (agonist activity, cAMP); format: biochemical, goldfish retina or rat striatum
[2] = test system: striatal dopamine receptors; test: animal or person; format: in vivo; settings: Rattus norvegicus, sc, read-out: EC50, rotation behavior
[3] = molecular target: dopamine D-1 receptor (Rattus norvegicus, UniProt P18901); test: biochemical
[4] = molecular target: T1, dopamine D-2 receptor (Rattus norvegicus, UniProt P61169); test: D-2 receptor competitive binding, [3H]-spiroperidol, homogenized rat caudate; settings: rat caudate, [3H]-spiroperidol; read-out: D-2 Ki
T1 construct: Homogenized rat caudate was the source of the D-2 receptors; from tissue; host or cells: rat caudate homogenate

[5] = goldfish retina or rat striatum homogenate

Sequence of dopamine D-1 receptor (P18901 whole entry): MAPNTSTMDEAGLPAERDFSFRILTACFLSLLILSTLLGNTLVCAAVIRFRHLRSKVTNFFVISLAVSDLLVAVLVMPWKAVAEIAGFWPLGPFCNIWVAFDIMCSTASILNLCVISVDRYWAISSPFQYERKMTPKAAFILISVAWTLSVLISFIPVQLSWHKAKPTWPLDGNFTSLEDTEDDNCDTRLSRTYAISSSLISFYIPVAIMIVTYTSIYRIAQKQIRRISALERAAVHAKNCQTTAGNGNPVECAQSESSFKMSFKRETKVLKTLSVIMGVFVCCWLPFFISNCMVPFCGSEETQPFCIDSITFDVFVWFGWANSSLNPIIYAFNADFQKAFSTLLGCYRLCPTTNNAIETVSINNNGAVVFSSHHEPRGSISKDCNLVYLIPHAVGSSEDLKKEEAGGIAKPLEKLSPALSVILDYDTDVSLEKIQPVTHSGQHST
T1 sequence (P61169 whole entry): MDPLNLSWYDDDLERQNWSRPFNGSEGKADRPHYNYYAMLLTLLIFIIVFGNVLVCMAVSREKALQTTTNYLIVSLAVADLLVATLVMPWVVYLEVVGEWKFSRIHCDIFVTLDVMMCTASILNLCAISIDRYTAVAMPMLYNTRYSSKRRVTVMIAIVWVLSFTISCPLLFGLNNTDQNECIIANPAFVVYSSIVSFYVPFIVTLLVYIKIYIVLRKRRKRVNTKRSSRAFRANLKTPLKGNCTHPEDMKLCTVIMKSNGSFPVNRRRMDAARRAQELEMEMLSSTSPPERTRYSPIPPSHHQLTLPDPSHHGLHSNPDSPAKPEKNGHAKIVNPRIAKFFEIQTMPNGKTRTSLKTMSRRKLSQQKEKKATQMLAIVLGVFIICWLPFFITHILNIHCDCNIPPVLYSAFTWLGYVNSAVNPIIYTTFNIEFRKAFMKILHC

Compound: 2-propyl-4,5,5a,6,7,11b-hexahydro-1-thia-5-aza-cyc! opent-2-ena[c]phenanthrene-10-ol hydrobromide [Example 44]
- agonist/antagonist properties at dopamine receptor ([1]; hydrobromide): no agonist properties; also recorded: dopamine antagonist

Compound: CCc1cc2c(s1)CN[C@H]1CCc3cc(O)c(O)cc3[C@H]21 (relative stereo) [Example 3, trans-2-ethyl-4,5,5a,6,7,11b-hexahydro-3-thia-5-aza-cyclopent-1-ena[c]phenanthrene-9,10-diol hydrobromide]
- ED50 [2]: 0.077 µmol/kg

Compound: CCCc1cc2c(s1)CN[C@H]1CCc3cc(O)c(O)cc3[C@H]21 (relative stereo) [Example 5, trans-2-propyl-4,5,5a,6,7,11b-hexahydro-3-thia-5-aza-cyclopent-1-ena[c]phenanthrene-9,10-diol hydrobromide]
- ED50 [2]: 0.15 µmol/kg

Compound: CC(C)(C)c1cc2c(s1)CN[C@H]1CCc3cc(O)c(O)cc3[C@H]21 (relative stereo) [Example 6, trans-2-(1,1-dimethylethyl)-4,5,5a,6,7,11b-hexahydro-3-thia-5-aza-cyclopent-1-ena[c]phenanthrene-9,10-diol hydrobromide]
- ED50 [2]: 0.12 µmol/kg

Compound: CC(C)(C)Cc1cc2c(s1)CN[C@H]1CCc3cc(O)c(O)cc3[C@H]21 (relative stereo) [Example 10, trans-2-(2,2-Dimethylpropyl)-4,5,5a,6,7,11b-hexahydro-3-thia-5-aza-cyclopent-1-ena[c]-phenanthrene-9,10-diol]
- Ki [3]: 560 nM
- Intrinsic Activity (%) [1]: 50%
- EC50 [1, 5]: 216 nM
- Ki [4]: 4600 nM

Compound: Oc1cc2c(cc1O)[C@@H]1c3sc(-c4ccccc4)cc3CN[C@H]1CC2 (relative stereo) [Example 19, trans-2-phenyl-4,5,5a,6,7,11b-hexahydro-1-thia-5-aza-cyclopent-2-ena[c]phenanthrene-9,10-diol hydrobromide]
- Ki [3]: 360 nM
- EC50 [1]: 25 nM
- Intrinsic Activity (%) [1]: 79%
- Ki [4]: 750 nM

Compound: Cc1cc2c(s1)CN[C@H]1CCc3cc(O)c(O)cc3[C@H]21 (relative stereo) [Example 22, trans-2-methyl-4,5,5a,6,7,11b-hexahydro-3-thia-5-aza-cyclopent-1-ena[c]phenanthrene-9,10-diol hydrobromide]
- ED50 [2]: 0.2 µmol/kg

Compound: CCCc1nc2c(s1)[C@H]1c3cc(O)c(O)cc3CC[C@@H]1NC2 (relative stereo) [Example 27, trans-2-propyl-4,5,5a,6,7,11b-hexahydro-1-thia-3,5-diaza-cyclopent-2-ena[c]phenanthrene-9,10-diol dihydrobromide]
- Ki [3]: 11 nM
- ED50 [2]: > 1 µmol/kg
- Intrinsic Activity (%) [1]: 93%
- EC50 [1, 5]: 120 nM
- Ki [4]: 210 nM

Compound: Oc1cc2c(cc1O)[C@H]1c3sc(C(F)(F)F)nc3CN[C@@H]1CC2 (relative stereo) [Example 28, trans-2-Trifluoromethyl-4,5,5a,6,7, 11b-hexahydro-1-thia-3,5-diaza-cyclopent-2-ena[c]phenanthrene-9,10-diol]
- Ki [3]: 52 nM
- ED50 [2]: 0.4 µmol/kg
- Intrinsic Activity (%) [1]: 77%
- EC50 [1, 5]: 202 nM
- Ki [4]: > 5000 nM

Compound: CCCc1nc2c(o1)[C@@H]1c3cc(O)c(O)cc3CC[C@H]1NC2 (relative stereo) [Example 29, trans-2-Propyl-4,5,5a,6,7,11b-hexahydro-1-oxa-3,5-diaza-cyclopent-2-ena[c]phenanthrene-9,10-diol dihydrobromide]
- ED50 [2]: 0.41 µmol/kg
- EC50 [1]: 28 nM
- Intrinsic Activity (%) [1]: 81%

Compound: CC(C)CCc1cc2c(s1)[C@@H]1c3cc(O)c(O)cc3CC[C@H]1NC2 (relative stereo) [Example 30, trans-2-(3-Methylbutyl)-4,5,5a,6,7,11b-hexahydro-1-thia-5-aza-cyclopent-2-ena[c]phenanthrene-9,10-diol hydrobromide]
- Ki [3]: 62 nM
- ED50 [2]: > 1 µmol/kg
- Intrinsic Activity (%) [1]: 70%
- EC50 [1, 5]: 105 nM
- Ki [4]: 560 nM

Compound: CC(C)c1cc2c(s1)[C@@H]1c3cc(O)c(O)cc3CC[C@H]1NC2 (relative stereo) [Example 34, trans-2-Isopropyl-4,5,5a,6,7,11b-hexahydro-1-thia-5-aza-cyclopent-2-ena[c]phenanthrene-9,10-diol trifluoroacetate salt]
- Ki [3]: 4 nM
- ED50 [2]: 0.04 µmol/kg
- EC50 [1]: 16 nM
- Intrinsic Activity (%) [1]: 80%
- Ki [4]: 420 nM

Compound: Oc1cc2c(cc1O)[C@H]1c3cc(-c4cccs4)sc3CN[C@@H]1CC2 (relative stereo) [Example 37, trans-2-(2-Thiophenyl)-4,5,5a,6,7,11b-hexahydro-3-thia-5-aza-cyclopent-1-ena[c]phenanthrene-9,10-diol hydrobromide]
- Ki [3]: 710 nM
- Intrinsic Activity (%) [1]: 65%
- EC50 [1, 5]: 332 nM
- Ki [4]: 3190 nM

Compound: CCCCCCc1cc2c(s1)CN[C@@H]1CCc3cc(O)c(O)cc3[C@@H]21 (relative stereo) [Example 38, trans-2-Hexyl-4,5,5a,6,7,11b-hexahydro-3-thia-5-aza-cyclopent-1-ena[c]phenanthrene-9,10-diol TFA salt]
- Ki [3]: 1430 nM
- Intrinsic Activity (%) [1]: 58%
- EC50 [1, 5]: 285 nM
- Ki [4]: 2580 nM

Compound: Oc1cc2c(cc1O)[C@H]1c3cc(CC4CCCC4)sc3CN[C@@H]1CC2 (relative stereo) [Example 39, trans-2-(Cyclopentylmethyl)-4,5,5a,6,7,11b-hexahydro-3-thia-5-aza-cyclopent-1-ena[c]phenanthrene-9,10-diol hydrobromide]
- Ki [3]: 450 nM
- Intrinsic Activity (%) [1]: 93%
- EC50 [1, 5]: 110 nM
- Ki [4]: 1620 nM

Compound: CCCc1cc2c(o1)CN[C@@H]1CCc3cc(O)c(O)cc3[C@@H]21 (relative stereo) [Example 41, trans-2-Propyl-4,5,5a,6,7,11b-hexahydro-3-oxa-5-aza-cyclopent-1-ena[c]phenanthrene-9,10-diol]
- Ki [3]: 21 nM
- ED50 [2]: 0.07 µmol/kg
- EC50 [1]: 46 nM
- Intrinsic Activity (%) [1]: 87%
- Ki [4]: 600 nM

Compound: Oc1cc2c(cc1O)[C@H]1c3cc(-c4ccccc4)oc3CN[C@@H]1CC2 (relative stereo) [Example 42, trans-2-Phenyl-4,5,5a,6,7,11b-hexahydro-3-oxa-5-aza-cyclopent-1-ena[c]phenanthrene-9,10-diol hydrochloride]
- Ki [3]: 453 nM
- EC50 [1]: 78 nM
- Intrinsic Activity (%) [1]: 59%
- Ki [4]: 640 nM

Compound: CCCc1csc2c1CN[C@@H]1CCc3cc(O)c(O)cc3[C@@H]21 (relative stereo) [Example 52, trans-3-propyl-4,5,5a,6,7,11b-hexahydro-1-thia-5-aza-cyclopent-2-ena[c]phenanthrene-9,10-diol hydrochloride]
- ED50 [2]: 0.32 µmol/kg

Compound: CCCc1nc2c(o1)CN[C@@H]1CCc3cc(O)c(O)cc3[C@@H]21 (relative stereo) [Example 53, trans-2-propyl-4,5,5a,6,7,11b-hexahydro-1,5-diaza-3-oxa-cyclopent-1-ena[c]phenanthrene-9,10-diol dihydrobromide]
- Ki [3]: 154 nM
- Intrinsic Activity (%) [1]: 83%
- EC50 [1, 5]: 1000 nM
- Ki [4]: 230 nM

Compound: CCCc1nc2c(s1)CN[C@@H]1CCc3cc(O)c(O)cc3[C@@H]21 (relative stereo) [Example 54, trans-2-propyl-4,5,5a,6,7,11b-hexahydro-1,5-diaza-3-thia-cyclopent-1-ena[c]phenanthrene-9,10-diol dihydrobromide]
- Ki [3]: 220 nM
- ED50 [2]: 0.21 µmol/kg
- Intrinsic Activity (%) [1]: 67%
- EC50 [1, 5]: 580 nM
- Ki [4]: > 5000 nM

Compound: CCc1cc2c(o1)[C@@H]1c3cc(O)c(O)cc3CC[C@H]1NC2 (relative stereo) [Example 55, trans-2-ethyl-4,5,5a,6,7,11b-hexahydro-1-oxa-5-aza-cyclopent-2-ena[c]phenanthrene-9,10-diol hydrochloride]
- Ki [3]: 10 nM
- ED50 [2]: 0.17 µmol/kg
- EC50 [1]: 64 nM
- Intrinsic Activity (%) [1]: 92%
- Ki [4]: 368 nM

Compound: CCc1cc2c(s1)CN[C@H]1CCc3cc(O)c(O)cc3[C@H]21 (single isomer, unassigned) [Example 4, (-)-trans-2-ethyl-4,5,5a,6,7,11b-hexahydro-3-thia-5-aza-cyclopent-1-ena[c]phenanthrene-9,10-diol hydrobromide]
- ED50 [2]: 0.04 µmol/kg

Compound: CCCc1cc2c(s1)CN[C@H]1CCc3cc(O)c(O)cc3[C@H]21 (single isomer, unassigned) [Example 20, (-)-trans-2-propyl-4,5,5a,6,7,11b-hexahydro-3-thia-5-aza-cyclopent-1-ena[c]phenanthrene-9,10-diol hydrobromide]
- ED50 [2]: 0.11 µmol/kg

Compound: Cc1cc2c(s1)CN[C@H]1CCc3cc(O)c(O)cc3[C@H]21 (single isomer, unassigned) [Example 23, (-)-trans-2-Methyl-4,5,5a,6,7,11b-hexahydro-3-thia-5-aza-cyclopent-1-ena[c]-phenanthrene-9,10-diol]
- ED50 [2]: 0.05 µmol/kg

Compound: CC(C)(C)c1cc2c(s1)CN[C@H]1CCc3cc(O)c(O)cc3[C@H]21 (single isomer, unassigned) [Example 24, (-)-trans-2-(1,1-Dimethylethyl)-4,5,5a,6,7,11b-hexahydro-3-thia-5-aza-cyclopent-1-ena[c]-phenanthrene-9,10-diol]
- ED50 [2]: 0.04 µmol/kg

Compound: CCCc1cc2c(s1)CNC1CCc3cc(OC(C)=O)c(OC(C)=O)cc3C21 (single isomer, unassigned; (-)) [Example 48, (-)-trans-9,10-Diacetyloxy-2-propyl-4,5,5a,6,7,11b-hexahydro-3-thia-5-aza-cyclopent-1-ena[c]phenanthrene hydrochloride]
- ED50 [2]: 0.04 µmol/kg

Compound: Cc1ccc(-c2cc3c(s2)CNC2CCc4cc(O)c(O)cc4C32)cc1 (stereo not shown) [Example 46, 2-(4-Methylphenyl)-4,5,5a,6,7,11b-hexahydro-3-thia-5-aza-cyclopent-1-ena[c]phenanthrene-9,10-diol hydrobromide]
- Ki [3]: > 5000 nM
- Ki [4]: > 5000 nM
